Data published in ChEMBL document CHEMBL6074623, “Carbamoylation at C-8 position of natural 3-arylcoumarin scaffold for the discovery of novel PARP-1 inhibitors with potent anticancer activity” (Eur J Med Chem, 2024).
Activity calls are given as the source filed them. The calls are words filed in the database; no cut-off is given here.

Columns and labels:
SUM149PT [1] = test: Induction of apoptosis in human SUM149PT cells assessed as upregulation of cleaved PARP expression incubated for 48 hrs by Western blotting analysis; type: functional, cell-based
SUM149PT [2] = test: Induction of cell cycle arrest in human SUM149PT cells assessed as accumulation of cells at G0/G1 phase at 0.1 uM incubated for 24 hrs by propidium iodide/RNase A staining based flow cytometry (reference value: 72.8 %); type: functional
SUM149PT [3] = test: Induction of DNA double strand breaks in human SUM149PT cells assessed as increase in gamma-H2AX level in nucleus incubated for 48 hrs by immunofluorescence analysis; type: functional, cell-based
SUM149PT [4] = test: Induction of apoptosis in human SUM149PT cells assessed as viable cells at 0.5 uM incubated for 48 hrs by Annexin V-FITC/PI staining based flow cytometry (reference value: 96.1 %); type: functional; conditions: read-out: Activity
SUM149PT [5] = test: Induction of apoptosis in human SUM149PT cells assessed as downregulation of BCL-2 expression incubated for 48 hrs by Western blotting analysis; type: functional, cell-based
SUM149PT [6] = test: Induction of apoptosis in human SUM149PT cells assessed as necrotic cells at 0.5 uM incubated for 48 hrs by Annexin V-FITC/PI staining based flow cytometry (reference value: 0.51 %); type: functional
SUM149PT [7] = test: Induction of apoptosis in human SUM149PT cells assessed as late apoptotic cells at 0.1 uM incubated for 48 hrs by Annexin V-FITC/PI staining based flow cytometry (reference value: 1.13 %); type: functional
SUM149PT [8] = test: Induction of cell cycle arrest in human SUM149PT cells assessed as accumulation of cells at S phase at 2 uM incubated for 48 hrs by propidium iodide/RNase A staining based flow cytometry (reference value: 18.7 %); type: functional
SUM149PT [9] = test: Induction of apoptosis in human SUM149PT cells assessed as late apoptotic cells at 0.5 uM incubated for 24 hrs by Annexin V-FITC/PI staining based flow cytometry (reference value: 2.45 %); type: functional
SUM149PT [10] = test: Induction of apoptosis in human SUM149PT cells assessed as late apoptotic cells at 0.5 uM incubated for 48 hrs by Annexin V-FITC/PI staining based flow cytometry (reference value: 1.13 %); type: functional
SUM149PT [11] = test: Induction of cell cycle arrest in human SUM149PT cells assessed as accumulation of cells at G2/M phase at 0.1 uM incubated for 48 hrs by propidium iodide/RNase A staining based flow cytometry (reference value: […] %); type: functional
SUM149PT [12] = test: Induction of cell cycle arrest in human SUM149PT cells assessed as accumulation of cells at G0/G1 phase at 0.5 uM incubated for 24 hrs by propidium iodide/RNase A staining based flow cytometry (reference value: 72.8 %); type: functional
SUM149PT [13] = test: Induction of cell cycle arrest in human SUM149PT cells assessed as accumulation of cells at G0/G1 phase at 0.1 uM incubated for 48 hrs by propidium iodide/RNase A staining based flow cytometry (reference value: 69.2 %); type: functional
SUM149PT [14] = test: Induction of ROS in human SUM149PT cells assessed as increase in fluorescence intensity at 2 uM incubated for 48 hrs by DCFH-DA staining based confocal laser scanning microscopic analysis relative to niraparib; type: functional, cell-based
HCC1937 = test: Antiproliferative activity against human HCC1937 cells assessed as inhibition of cell growth incubated for 48 hrs by MTT assay; type: functional, cell-based; conditions: HCC1937, 48 h
SUM149PT [15] = test: Induction of apoptosis in human SUM149PT cells assessed as early apoptotic cells at 2 uM incubated for 48 hrs by Annexin V-FITC/PI staining based flow cytometry (reference value: 2.28 %); type: functional
SUM149PT [16] = test: Induction of cell cycle arrest in human SUM149PT cells assessed as accumulation of cells at G0/G1 phase at 2 uM incubated for 48 hrs by propidium iodide/RNase A staining based flow cytometry (reference value: 69.2 %); type: functional
SUM149PT [17] = test: Induction of apoptosis in human SUM149PT cells assessed as upregulation of caspase-3 expression incubated for 48 hrs by Western blotting analysis; type: functional, cell-based
SUM149PT [18] = test: Induction of cell cycle arrest in human SUM149PT cells assessed as accumulation of cells at G0/G1 phase at 0.5 uM incubated for 48 hrs by propidium iodide/RNase A staining based flow cytometry (reference value: 69.2 %); type: functional
SUM149PT [19] = test: Induction of apoptosis in human SUM149PT cells assessed as early apoptotic cells at 0.1 uM incubated for 24 hrs by Annexin V-FITC/PI staining based flow cytometry (reference value: 2.59 %); type: functional
SUM149PT [20] = test: Induction of cell cycle arrest in human SUM149PT cells assessed as accumulation of cells at G2/M phase at 2 uM incubated for 24 hrs by propidium iodide/RNase A staining based flow cytometry (reference value: 5.54 %); type: functional
MDA-MB-436 = test: Antiproliferative activity against human MDA-MB-436 cells assessed as inhibition of cell growth at 20 uM incubated for 48 hrs by MTT assay relative to control; type: functional
SUM149PT [21] = test: Induction of apoptosis in human SUM149PT cells assessed as late apoptotic cells at 0.1 uM incubated for 24 hrs by Annexin V-FITC/PI staining based flow cytometry (reference value: 2.45 %); type: functional
SUM149PT [22] = test: Antiproliferative activity against human SUM149PT cells assessed as inhibition of cell growth incubated for 48 hrs by MTT assay; type: functional, cell-based
SUM149PT [23] = test: Induction of cell cycle arrest in human SUM149PT cells assessed as accumulation of cells at S phase at 0.1 uM incubated for 48 hrs by propidium iodide/RNase A staining based flow cytometry (reference value: 18.7 %); type: functional
SUM149PT [24] = test: Induction of apoptosis in human SUM149PT cells assessed as necrotic cells at 2 uM incubated for 48 hrs by Annexin V-FITC/PI staining based flow cytometry (reference value: 0.51 %); type: functional
SUM149PT [25] = test: Induction of apoptosis in human SUM149PT cells assessed as early apoptotic cells at 0.5 uM incubated for 48 hrs by Annexin V-FITC/PI staining based flow cytometry (reference value: 2.28 %); type: functional
SUM149PT [26] = test: Induction of apoptosis in human SUM149PT cells assessed as early apoptotic cells at 0.1 uM incubated for 48 hrs by Annexin V-FITC/PI staining based flow cytometry (reference value: 2.28 %); type: functional
SUM149PT [27] = test: Induction of apoptosis in human SUM149PT cells assessed as upregulation of cleaved caspase-3 expression incubated for 48 hrs by Western blotting analysis; type: functional, cell-based
CAPAN-1 = test: Antiproliferative activity against human CAPAN-1 cells assessed as inhibition of cell growth incubated for 48 hrs by MTT assay; type: functional, cell-based; conditions: CAPAN-1, 48 h
SUM149PT [28] = test: Induction of cell cycle arrest in human SUM149PT cells assessed as accumulation of cells at G2/M phase at 0.5 uM incubated for 48 hrs by propidium iodide/RNase A staining based flow cytometry (reference value: […] %); type: functional
SUM149PT [29] = test: Induction of cell cycle arrest in human SUM149PT cells assessed as accumulation of cells at S phase at 0.1 uM incubated for 24 hrs by propidium iodide/RNase A staining based flow cytometry (reference value: 16.4 %); type: functional
SUM149PT [30] = test: Induction of apoptosis in human SUM149PT cells assessed as viable cells at 2 uM incubated for 24 hrs by Annexin V-FITC/PI staining based flow cytometry (reference value: 93.7 %); type: functional; conditions: read-out: Activity

IC50 (HCC1937): 1910 nM
SMILES: COc1cccc(-c2cc3cc(F)cc(C(N)=O)c3oc2=O)c1
Activity (SUM149PT [1]): Dose-dependent-effect | Activity (SUM149PT [2]): 59.5% | Activity (SUM149PT [3]): Dose-dependent-effect | viability at 0.5 µM (SUM149PT [4]): 61.3% | Activity (SUM149PT [5]): Dose-dependent-effect | Activity (SUM149PT [6]): 11.9% | Activity (SUM149PT [7]): 6% | Activity (SUM149PT [8]): 18.5% | Activity (SUM149PT [9]): 5.48% | Activity (SUM149PT [10]): 13.5% | Activity (SUM149PT [11]): 29.1% | Activity (SUM149PT [12]): 64.3% | Activity (SUM149PT [13]): 25.9% | Activity (SUM149PT [14]): Active | Activity (SUM149PT [15]): 29.6% | Activity (SUM149PT [16]): 16.9% | Activity (SUM149PT [17]): Dose-dependent-effect | Activity (SUM149PT [18]): 38.3% | Activity (SUM149PT [19]): 3.96% | Activity (SUM149PT [20]): 36.8% | inhibition at 20 µM (MDA-MB-436): < 40% | Activity (SUM149PT [21]): 2.69% | IC50 (SUM149PT [22]): 620 nM | Activity (SUM149PT [23]): 45.4% | Activity (SUM149PT [24]): 2.61% | Activity (SUM149PT [25]): 13.4% | Activity (SUM149PT [26]): 5.45% | Activity (SUM149PT [27]): Dose-dependent-effect | IC50 (CAPAN-1): 4260 nM | Activity (SUM149PT [28]): 36.7% | Activity (SUM149PT [29]): 33.2% | viability at 2 µM (SUM149PT [30]): 76.7%
